Data taken from US11566030B2, “Substituted 2,6-dihydropyrrolo[3,4-c]pyrazoles as pyruvate kinase activators” (priority 2021, dated 2023).
Like-named read-outs stand apart in the source and are kept apart here.

Biological target: T1, Human pyruvate kinase R (PKR) (Homo sapiens, UniProt P30613)
T1 construct: Human pyruvate kinase R (PKR), residues 14-574; 6xHis-8xArg-SUMO (N, cleaved yes); host or cells: E. coli
Assay: Biochemical assay for activation of pyruvate kinase R (Kinase-Glo luminescence, ATP generation)
Conditions: for Emax: read-out: PKR % activation, maximal activation level achieved with each compound relative to the activation level achieved by AG-348 @ 10 μM
Description: Human pyruvate kinase R (PKR), residues 14-574, and human pyruvate kinase M2, residues 1-531, were cloned into expression plasmids and obtained from ATUM Bio (Newark, Calif.). Proteins were translated as fusions with 6×-His,8×-Arg, and SUMO at the N-terminus. A third construct of human PKR was truncated, residues 50-574, and similarly cloned for use in crystallography experiments. All proteins were cloned, expressed in E. coli, and purified using similar protocols. Cells were grown at 30° C. in Luria-Bertani broth supplemented with 0.4% glucose to OD600=0.8 and induced with 0.4 mM IPTG at 16° C. for 18 hours. Cells were harvested by centrifugation, resuspended in 50 mM potassium phosphate pH 8.0, 500 mM NaCl, 25 mM imidazole pH 8.0, and 3 mM β-mercaptoethanol. Cells were lysed using a LM20 microfluidizer from Microfluidics (Westwood, Mass.). The crude lysate was immediately supplemented with 0.2 mM phenylmethylsulfonyl fluoride (PMSF) and centrifuged at 20,000 g for 20 minutes. The soluble fraction was subsequently incubated with 2 mL Ni-NTA (GE Healthcare) per 1,000 ODs for 1 hour at 4° C. Following incubation with the Ni-NTA resin, lysate was removed by pelleting resin at 2,500 g for 3 minutes and washed 3 times with 9 bed volumes of 50 mM potassium phosphate pH 8.0, 500 mM NaCl, 25 mM imidazole, and 3 mM β-mercaptoethanol. Following the batch wash Ni-NTA resin was loaded onto a gravity column and His-tagged protein was eluted with 6 bed volumes of 10 mM Tris/HCl pH 8.0, 200 mM NaCl, 500 mM imidazole, and 3 mM β-mercaptoethanol. Eluted protein was dialyzed overnight against 10 mM Tris/HCl pH 8.0, 200 mM NaCl, and 1 mM DTT and the 6×-His-8×-Arg-SUMO-tag was cleaved using a 20:1 molar ratio of protein: 3C protease. The protein was purified by anion exchange chromatography on a HiTrapQ or MonoQ 10/100 GL column (GE Healthcare) via a linear NaCl gradient and twice by size exclusion chromatography using a Superdex S200 26/60 column (GE Healthcare) run in 10 mM Tris/HCl pH 8.0, 200 mM NaCl, 10 mM MgCl2, 1 mM DTT. Proteins were concentrated to −12 mg/mL for crystallization and flash frozen for storage.
Biochemical assay for Activation of Pyruvate Kinase R
Activation of pyruvate kinase R (PKR) and pyruvate kinase M2 (PKM2) were measured using a luminescence based measurement of ATP generation and the Kinase-Glo luminescent kinase reagent kit.

[1] = PKR AC50 (nM), 0.1 nM PKR, 0.3 mM ADP, 0.1 mM PEP, 1% DMSO

T1 sequence (P30613 14-574): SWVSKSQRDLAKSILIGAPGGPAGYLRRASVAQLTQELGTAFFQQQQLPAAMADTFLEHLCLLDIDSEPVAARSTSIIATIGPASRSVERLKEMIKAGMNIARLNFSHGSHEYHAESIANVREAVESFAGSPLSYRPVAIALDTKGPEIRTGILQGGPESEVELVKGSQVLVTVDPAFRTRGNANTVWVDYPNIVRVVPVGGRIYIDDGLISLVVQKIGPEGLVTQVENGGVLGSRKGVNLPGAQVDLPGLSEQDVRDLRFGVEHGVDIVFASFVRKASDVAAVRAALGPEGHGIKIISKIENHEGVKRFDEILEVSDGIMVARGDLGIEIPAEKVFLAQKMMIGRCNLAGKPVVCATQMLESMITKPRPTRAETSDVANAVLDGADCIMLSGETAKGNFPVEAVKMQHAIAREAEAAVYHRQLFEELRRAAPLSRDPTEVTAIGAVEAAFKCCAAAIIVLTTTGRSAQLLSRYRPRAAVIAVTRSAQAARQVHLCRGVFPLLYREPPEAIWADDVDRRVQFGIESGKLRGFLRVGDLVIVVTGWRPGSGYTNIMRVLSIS

AC50 [nM] | Emax [%] | AC50 [1] [nM] | Structure (SMILES)
8.6 | 30 | – | COc1nc(C)c(S(=O)(=O)n2cc3c(n2)CN(C(=O)[C@H](CO)c2ccccc2F)C3)s1 [Compound 23, (2S)-2-(2-fluorophenyl)-3-hydroxy-1-{2-[(2-methoxy-4-methyl-1,3-thiazol-5-yl)sulfonyl]-2H,4H,5H,6H-pyrrolo[3,4-c]pyrazol-5-yl}propan-1-one]
5.1 | 98 | – | O=C([C@H](CO)c1cccc(F)c1Cl)N1Cc2cn(S(=O)(=O)c3cnn(CC(F)F)c3)nc2C1 [Compound 55, (2S)-2-(2-chloro-3-fluorophenyl)-1-{2-[1-(2,2-difluoroethyl)pyrazol-4-ylsulfonyl]-4H,6H-pyrrolo[3,4-c]pyrazol-5-yl}-3-hydroxypropan-1-one]
– | 74 | 28 | COCCn1cc(S(=O)(=O)n2cc3c(n2)CN(C(=O)[C@H](CO)c2ccccc2F)C3)cn1 [Compound 60, (2S)-2-(2-fluorophenyl)-3-hydroxy-1-{2-[1-(2-methoxyethyl)pyrazol-4-ylsulfonyl]-4H,6H-pyrrolo[3,4-c]pyrazol-5-yl}propan-1-one]
8.9 | 73 | – | Cc1cn(CC(F)F)nc1S(=O)(=O)n1cc2c(n1)CN(C(=O)[C@H](CO)c1ccccc1Cl)C2 [Compound 80, (2S)-2-(2-chlorophenyl)-1-(2-{[1-(2,2-difluoroethyl)-4-methyl-1H-pyrazol-3-yl]sulfonyl}-2H,4H,5H,6H-pyrrolo[3,4-c]pyrazol-5-yl)-3-hydroxypropan-1-one]
– | 85 | 23 | O=C([C@H](O)c1ccccc1F)N1Cc2cn(S(=O)(=O)c3cnn(CC(F)F)c3)nc2C1 [Compound 36, (2R)-1-[2-[1-(2,2-difluoroethyl)pyrazol-4-ylsulfonyl]-4H,6H-pyrrolo[3,4-c]pyrazol-5-yl]-2-(2-fluorophenyl)-2-hydroxyethanone]
– | 53 | 1300 | COCCn1ccc(S(=O)(=O)n2cc3c(n2)CN(C(=O)[C@@H](CO)c2ccccc2F)C3)n1 [Compound 45, (2R)-2-(2-fluorophenyl)-3-hydroxy-1-[2-[1-(2-methoxyethyl)pyrazol-3-ylsulfonyl]-4H,6H-pyrrolo[3,4-c]pyrazol-5-yl]propan-1-one]
– | 93 | 24 | O=C(N1Cc2cn(S(=O)(=O)c3cnn(CC(F)(F)F)c3)nc2C1)C1(c2ncccc2Cl)COC1 [Compound 52, (3-(3-chloropyridin-2-yl)oxetan-3-yl)(2-((1-(2,2,2-trifluoroethyl)-1H-pyrazol-4-yl)sulfonyl)-2,6-dihydropyrrolo[3,4-c]pyrazol-5(4H)-yl)methanone]
17 | 102 | – | C[C@@H](O)[C@@H](C(=O)N1Cc2cn(S(=O)(=O)c3cnn(CC(F)F)c3)nc2C1)c1ccccc1 [Compound 7, (2S,3R)-1-(2-{[1-(2,2-difluoroethyl)-1H-pyrazol-4-yl]sulfonyl}-2H,4H,5H,6H-pyrrolo[3,4-c]pyrazol-5-yl)-3-hydroxy-2-phenylbutan-1-one]
15 | 69 | – | O=C([C@H](CO)c1ccccc1)N1Cc2cn(S(=O)(=O)c3cnn(CC(F)(F)F)c3)nc2C1 [Compound 83, (2S)-3-hydroxy-2-phenyl-1-{2-[1-(2,2,2-trifluoroethyl)pyrazol-4-ylsulfonyl]-4H,6H-pyrrolo[3,4-c]pyrazol-5-yl}propan-1-one]
– | 9 | 2100 | Cc1cn(CC(F)(F)F)nc1S(=O)(=O)n1cc2c(n1)CN(C(=O)[C@H](CO)c1ccccc1F)C2 [Compound 68, (2S)-2-(2-fluorophenyl)-3-hydroxy-1-{2-[4-methyl-1-(2,2,2-trifluoroethyl)pyrazol-3-ylsulfonyl]-4H,6H-pyrrolo[3,4-c]pyrazol-5-yl}propan-1-one]
– | 62 | 3300 | O=C([C@@H](CO)c1ccccc1Cl)N1Cc2cn(S(=O)(=O)c3ncn(CC(F)F)n3)nc2C1 [Compound 108, (2R)-2-(2-chlorophenyl)-1-{2-[1-(2,2-difluoroethyl)-1,2,4-triazol-3-ylsulfonyl]-4H,6H-pyrrolo[3,4-c]pyrazol-5-yl}-3-hydroxypropan-1-one]
24 | 47 | – | O=C([C@H](CO)c1ccccc1)N1Cc2cn(S(=O)(=O)c3cnn(C4CCOC4)c3)nc2C1 (stereo partly drawn) [Compound 113, (2S)-3-hydroxy-1-(2-{[1-(oxolan-3-yl)-1H-pyrazol-4-yl]sulfonyl}-2H,4H,5H,6H-pyrrolo[3,4-c]pyrazol-5-yl)-2-phenylpropan-1-one]
– | 100 | 5.2 | O=C([C@H](CO)c1cccc(F)c1F)N1Cc2cn(S(=O)(=O)c3cnn(CC(F)F)c3)nc2C1 [Compound 53, (2S)-1-{2-[1-(2,2-difluoroethyl)pyrazol-4-ylsulfonyl]-4H,6H-pyrrolo[3,4-c]pyrazol-5-yl}-2-(2,3-difluorophenyl)-3-hydroxypropan-1-one]
550 | 33 | – | Cc1cn(CC(F)F)nc1S(=O)(=O)n1cc2c(n1)CN(C(=O)[C@@H](CO)c1ccccc1F)C2 [Compound 79, (2R)-1-{2-[1-(2,2-difluoroethyl)-4-methylpyrazol-3-ylsulfonyl]-4H,6H-pyrrolo[3,4-c]pyrazol-5-yl}-2-(2-fluorophenyl)-3-hydroxypropan-1-one]
– | 108 | 29 | O=C([C@@H](CO)c1ncccc1F)N1Cc2cn(S(=O)(=O)c3cnn(CC(F)F)c3)nc2C1 (single isomer, unassigned) [Compound 43]
– | 134 | 320 | COC(C(=O)N1Cc2cn(S(=O)(=O)c3cnn(CC(F)F)c3)nc2C1)c1ccccc1F (centres unmarked) [Compound 114]
– | 0 | 680 | Cc1nn(CC(F)F)c(C)c1S(=O)(=O)n1cc2c(n1)CN(C(=O)[C@@H](CO)c1ccccc1)C2 [Compound 88, (2R)-1-[2-[1-(2,2-difluoroethyl)-3,5-dimethylpyrazol-4-ylsulfonyl]-4H,6H-pyrrolo[3,4-c]pyrazol-5-yl]-3-hydroxy-2-phenylpropan-1-one]
6.4 | 93 | – | Cc1c(S(=O)(=O)n2cc3c(n2)CN(C(=O)[C@H](CO)c2ccccc2F)C3)cnn1CCF [Compound 96]
37 | 146 | – | O=C([C@@H](CO)c1ccccc1OCCO)N1Cc2cn(S(=O)(=O)c3cnn(CC(F)F)c3)nc2C1 (single isomer, unassigned) [Compound 110]
– | 89 | 450 | O=C([C@@H](CO)c1ccccc1F)N1Cc2cn(S(=O)(=O)c3cnn(CC(F)(F)F)c3)nc2C1 [Compound 33, (2R)-2-(2-fluorophenyl)-3-hydroxy-1-[2-[1-(2,2,2-trifluoroethyl)pyrazol-4-ylsulfonyl]-4H,6H-pyrrolo[3,4-c]pyrazol-5-yl]propan-1-one]
– | 117 | 9.1 | Cc1c(S(=O)(=O)n2cc3c(n2)CN(C(=O)[C@H](CO)c2ccccc2Cl)C3)cnn1CCF [Compound 98, (2S)-2-(2-chlorophenyl)-1-{2-[1-(2-fluoroethyl)-5-methylpyrazol-4-ylsulfonyl]-4H,6H-pyrrolo[3,4-c]pyrazol-5-yl}-3-hydroxypropan-1-one]
– | 110 | 4.7 | O=C([C@H](CO)c1ccccc1F)N1Cc2cn(S(=O)(=O)c3cnn(CC(F)F)c3)nc2C1 [Compound 2, (2S)-1-(2-{[1-(2,2-difluoroethyl)-1H-pyrazol-4-yl]sulfonyl}-2H,4H,5H,6H-pyrrolo[3,4-c]pyrazol-5-yl)-2-(2-fluorophenyl)-3-hydroxypropan-1-one]
– | 100 | 410 | Cc1c(S(=O)(=O)n2cc3c(n2)CN(C(=O)[C@@H](CO)c2ccccc2Cl)C3)cnn1CCF [Compound 99, (2R)-2-(2-chlorophenyl)-1-{2-[1-(2-fluoroethyl)-5-methylpyrazol-4-ylsulfonyl]-4H,6H-pyrrolo[3,4-c]pyrazol-5-yl}-3-hydroxypropan-1-one]
– | 18 | 34 | CCn1cc(S(=O)(=O)n2cc3c(n2)CN(C(=O)[C@H](CO)c2ccccc2)C3)c(C(F)(F)F)n1 [Compound 94, (2S)-1-{2-[1-ethyl-3-(trifluoromethyl)pyrazol-4-ylsulfonyl]-4H,6H-pyrrolo[3,4-c]pyrazol-5-yl}-3-hydroxy-2-phenylpropan-1-one]
– | 85 | 3400 | O=C([C@H](O)c1ncccc1F)N1Cc2cn(S(=O)(=O)c3ccn(CC(F)F)n3)nc2C1 (single isomer, unassigned) [Compound 28]
